According to US4614746A, “5-fluorobenzonitrile derivatives for increasing the lean meat to fat ratio and/or enhancing the growth rate of warm-blooded animals” (American Cyanamid Company, priority 1985, dated 1986):

Legend:
Format in all cases: in vivo
[1] = system: wether lambs; assay: Evaluation in wether lambs (growth, feed efficiency, muscle, fat, carcass), eight weeks; conditions: for ADG (Average daily gain): eight weeks; for Subcutaneous Fat Depth Over Loin / Muscle Cross-Sectional Area: 12th rib; for Muscle Cross-Sectional Area: longissimus dorsi
From the text: Evaluation of 3-[2-(tert-butylamino)1-hydroxyethyl]-5-fluorobenzonitrile for growth enhancement, feed efficiency improvement, increased deposition of muscle tissue and/or protein and improvement in carcass composition
To determine the effect of feeding experimental compounds to ruminants, wether lambs are randomly allotted to pens in groups of five. Three replications per treatment are used. The lambs are weighed and permitted feed and water ad libitum. The feed is weighed daily, and uneaten feed from the previous day is collected and weighed. Test lambs receive the same diet as control animals, but with the addition of experimental compound at a concentration of from 5 ppm to 20 ppm. The tests are conducted for a period of eight weeks at the end of which the lambs are again weighed, and the feed consumed calculated. The lambs are then necropsied. Eight animals per treatment are dressed, and the average cross-sectional area of the longissimus dorsi and depth of subcutaneous fat measured at the 12th rib.

[2] = system: CFI female mice; assay: Antilipogenic evaluation of test compounds - mouse study (Example 6, procedure of Example 4); conditions: for effectiveness as an antilipogenic agent: versus related analogues
Procedure: CFI female mice from Carworth Farms are received when they are six-weeks old. They are housed ten to a cage in air-conditioned rooms (22° C. to 25° C.) with automatically-controlled lights, 14 hours on and ten hours off. The basal diet used in these studies is Purina Laboratory Chow (see description below) which is supplied ad libitum.
Thirteen days after arrival, the mice are weighed in groups of ten and assigned at random to the different treatments. Each of the treatments is tested in three replicates, i.e., in three cages of ten mice each. There are ten cages of ten control mice each. Drugs are mixed in the diet at the dosage level indicated. Feed and water are offered ad libitum for a 12-day test period. Feed spilled is collected during the test period. At the end of the test period, the collected feed is weighed, and the mean feed consumption per cage of ten mice is determined for each treatment. The mice are weighed as a group of ten, and the weight gain determined. The mice are sacrificed by cervical dislocation. The right uterine fat pad of each mouse is removed. The fat pads for each cage of ten mice are weighed as a unit. Reduction in fat pad weights of animals is generally indicative of a reduction of total body fat of the treated animals.
Following the procedure of Example 4, the analogues of the compounds of the invention in the subject Application are evaluated as antilipogenic agents.

[3] = system: Hubbard X Hubbard Crossbred Chicks; assay: Evaluation as feed additive in poultry (growth rate, feed utilization, carcass yield), seven weeks; conditions: for Gain: seven weeks; for FE (Feed efficiency): feed/gain ratio; for FE, Percent (±) Control: percent improvement
From the text: Evaluation of 3-[2-(tert-butylamino)-1-hydroxyethyl]-5-fluorobenzonitrile as an animal feed additive for (1) the enhancement of the growth rate of poultry, (2) improvement in feed utilization thereby, (3) increase in the deposition of muscle tissue or protein in said birds and (4) improvement in the carcass quality of treated birds
One-day old Hubbard X Hubbard Crossbred Chicks, randomly allotted to pens of ten chicks (five males and five females) each.
Eight pens of chicks are used for unmedicated controls, and six pens of chicks are used at each level of drug. The duration of the experiment is seven weeks.
The controls are offered an unmedicated diet of Broiler Ration No. 453 (composition given below) and water ad libitum. Medicated chicks are offered the same diet containing the test drug at the levels indicated above, and water ad libitum. The weight of the chicks is determined at the beginning and on completion of the experiments. Weight gains and the amount of feed consumed are also determined. In addition, ten males and ten females from each group are randomly selected and sacrificed by decapitation. These birds were bled, the feathers, feet, and viscera removed, and the resulting carcass weighed.
The thus-obtained data are averaged and summarized in Table IV below, wherein the percent improvement in weight gains and feed/gain ratios are given.

[4] = system: CFI female mice; assay: Antilipogenic evaluation of test compounds - mouse study (fat pad and body weight, 12-day feeding); conditions: 12 days
Procedure: CFI female mice from Carworth Farms are received when they are six-weeks old. They are housed ten to a cage in air-conditioned rooms (22° C. to 25° C.) with automatically-controlled lights, 14 hours on and ten hours off. The basal diet used in these studies is Purina Laboratory Chow (see description below) which is supplied ad libitum. The following is a description of the diet to which the growth-promoting compounds were added. Meat and bone meal, dried skimmed milk, wheat germ meal, fish meal, animal liver meal, dried beet pulp, ground extruded corn, ground oat groats, soybean meal, dehydrated alfalfa metal, cane molasses, animal fat preserved with BHA, vitamin B12 supplement, calcium pantothenate, choline chloride, folic acid, riboflavin supplement, brewer's dried yeast, thiamin, niacin, vitamin A supplement, D-activated plant sterol, vitamin E supplement, calcium carbonate, dicalcium phosphate, iodized salt, ferric ammonium citrate, iron oxide, manganous oxide, cobalt carbonate, copper oxide, zinc oxide. Water is also allowed ad libitum. Thirteen days after arrival, the mice are weighed in groups of ten and assigned at random to the different treatments. Each of the treatments is tested in three replicates, i.e., in three cages of ten mice each. There are ten cages of ten control mice each. Drugs are mixed in the diet at the dosage level indicated. Feed and water are offered ad libitum for a 12-day test period. Feed spilled is collected during the test period. At the end of the test period, the collected feed is weighed, and the mean feed consumption per cage of ten mice is determined for each treatment. The mice are weighed as a group of ten, and the weight gain determined. The mice are sacrificed by cervical dislocation. The right uterine fat pad of each mouse is removed. The fat pads for each cage of ten mice are weighed as a unit. Reduction in fat pad weights of animals is generally indicative of a reduction of total body fat of the treated animals.

## CC(C)(C)NCC(O)c1cc(F)cc(C#N)c1 (stereo not drawn) [3-[2-(tert-Butylamino)-1-hydroxyethyl]-5-fluorobenzonitrile]
[1]; 5 ppm in diet
  AD Feed Consumed (Average daily feed consumed): 1.43 kg/day
  AD Feed Consumed, Percent (±) Control: +2.9%
  ADG, Percent (±) Control: +11.3%
  Carcass Yield: 51.80% of live weight
  Carcass Yield, Percent (±) Control: +1.8%
  FE (Feed efficiency): 6.36
  FE, Percent (±) Control: +7.0%
  Muscle Cross-Sectional Area, Percent (±) Control: +6.8%
  Subcutaneous Fat Depth Over Loin, Percent (±) Control: +23.8%
  ADG (Average daily gain): 226 g
  Subcutaneous Fat Depth Over Loin: 3.2 cm
  Muscle Cross-Sectional Area: 17.69 cm^2
[1]; 10 ppm in diet
  AD Feed Consumed (Average daily feed consumed): 1.50 kg/day
  AD Feed Consumed, Percent (±) Control: +7.9%
  ADG, Percent (±) Control: +24.6%
  Carcass Yield: 51.52% of live weight
  Carcass Yield, Percent (±) Control: +1.3%
  FE (Feed efficiency): 5.91
  FE, Percent (±) Control: +13.6%
  Muscle Cross-Sectional Area, Percent (±) Control: +11.4%
  Subcutaneous Fat Depth Over Loin, Percent (±) Control: +35.7%
  ADG (Average daily gain): 253 g
  Subcutaneous Fat Depth Over Loin: 2.7 cm
  Muscle Cross-Sectional Area: 18.44 cm^2
[1]; 20 ppm in diet
  AD Feed Consumed (Average daily feed consumed): 1.39 kg/day
  AD Feed Consumed, Percent (±) Control: +0.0%
  ADG, Percent (±) Control: +15.3%
  Carcass Yield: 54.15% of live weight
  Carcass Yield, Percent (±) Control: +6.5%
  FE (Feed efficiency): 5.92
  FE, Percent (±) Control: +13.5%
  Muscle Cross-Sectional Area, Percent (±) Control: +24.2%
  Subcutaneous Fat Depth Over Loin, Percent (±) Control: +57.1%
  ADG (Average daily gain): 234 g
  Subcutaneous Fat Depth Over Loin: 1.8 cm
  Muscle Cross-Sectional Area: 20.56 cm^2
[2]
  effectiveness as an antilipogenic agent: markedly more effective as an antilipogenic agent than its related aanalogues
[3]; 0.25 ppm in diet
  Carcass Yield: 69.46% of live weight
  Carcass Yield, Percent (±) Control: +1.0%
  Feed Consumed: 2.576 kg
  Feed Consumed, Percent (±) Control: +0.4%
  Gain, Percent (±) Control: +2.5%
  Gain: 1.105 kg
  FE (Feed efficiency): 2.333
  FE, Percent (±) Control: +2.1%
[3]; 0.5 ppm in diet
  Carcass Yield: 68.73% of live weight
  Carcass Yield, Percent (±) Control: 0.0%
  Feed Consumed: 2.571 kg
  Feed Consumed, Percent (±) Control: +0.2%
  Gain, Percent (±) Control: +5.0%
  Gain: 1.132 kg
  FE (Feed efficiency): 2.274
  FE, Percent (±) Control: +4.6%
[3]; 1 ppm in diet
  Carcass Yield: 69.66% of live weight
  Carcass Yield, Percent (±) Control: +1.3%
  Feed Consumed: 2.573 kg
  Feed Consumed, Percent (±) Control: +0.2%
  Gain, Percent (±) Control: +1.9%
  Gain: 1.097 kg
  FE (Feed efficiency): 2.350
  FE, Percent (±) Control: +1.4%
[3]; 2 ppm in diet
  Carcass Yield: 69.30% of live weight
  Carcass Yield, Percent (±) Control: +0.8%
  Feed Consumed: 2.578 kg
  Feed Consumed, Percent (±) Control: +0.4%
  Gain, Percent (±) Control: +3.3%
  Gain: 1.114 kg
  FE (Feed efficiency): 2.315
  FE, Percent (±) Control: +3.0%

## CC(C)NCC(O)c1cc(F)cc(C#N)c1 (stereo not drawn) [3-fluoro-5-[1-hydroxy-2-(isopropylamino)ethyl]-benzonitrile]
[2]; 100 ppm or 200 ppm in the diet
  effectiveness as an antilipogenic agent: generally more effective as an antilipogenic agent than its related analogues

## CC(C)(C)NCC(O)c1cc(F)cc(C#N)c1 (stereo not drawn) [drawing 13]
[4]; 25 ppm in diet
  % Change in Body Weight vs controls: +96.61%
  % Reduction in Fat Pad Weight vs Controls: -8.97%
[4]; 50 ppm in diet
  % Change in Body Weight vs controls: +80.51%
  % Reduction in Fat Pad Weight vs Controls: -14.04%
[4]; 100 ppm in diet
  % Change in Body Weight vs controls: +65.25%
  % Reduction in Fat Pad Weight vs Controls: -29.65%
[4]; 200 ppm in diet
  % Change in Body Weight vs controls: +55.93%
  % Reduction in Fat Pad Weight vs Controls: -38.13%

## CC(C)NCC(O)c1cc(F)cc(C#N)c1 (stereo not drawn) [drawing 14]
[2]; 100 ppm
  Mouse Test Fat Pad Weight % ± Control: -17.7%
[2]; 200 ppm
  Mouse Test Fat Pad Weight % ± Control: -33.3%
[4]; 3 ppm in diet
  % Change in Body Weight vs controls: +0.73%
[4]; 6 ppm in diet
  % Change in Body Weight vs controls: +40.88%
  % Reduction in Fat Pad Weight vs Controls: +5.91%
[4]; 12.5 ppm in diet
  % Change in Body Weight vs controls: +26.28%
  % Reduction in Fat Pad Weight vs Controls: -11.76%
[4]; 25 ppm in diet
  % Change in Body Weight vs controls: +29.20%
  % Reduction in Fat Pad Weight vs Controls: +9.76%
[4]; 50 ppm in diet
  % Change in Body Weight vs controls: +78.10%
  % Reduction in Fat Pad Weight vs Controls: +9.90%
[4]; 100 ppm in diet
  % Change in Body Weight vs controls: +56.93%
  % Reduction in Fat Pad Weight vs Controls: -17.71%
[4]; 200 ppm in diet
  % Change in Body Weight vs controls: +88.32%
  % Reduction in Fat Pad Weight vs Controls: -33.29%
